Experimental data reported in PMC10866013 (Nature, 2023).

System: MRSA USA300
Assay type: cell-based, Staphylococcus aureus
Conditions: vs S. aureus RN4220

`CC1(C)S[C@@H]2[C@H](NC(=O)[C@H](N)c3ccccc3)C(=O)N2[C@H]1C(=O)O` [ampicillin] was tested, and the “MIC increase in MRSA USA300 relative to the methicillin-susceptible strain” value was “at least 16 fold”.
